Read-outs that look alike come from different tables or passages of the source.

The results in this text go back to US9040563B2, “Dual inhibitors of farnesyltransferase and geranylgeranyltransferase I” (H. Lee Moffitt Cancer Center and Research Institute, Inc., priority 2010, dated 2015).

Experiment [1] deals with hFTase (Homo sapiens, UniProt P49354+P49356). Description: In vitro hFTase inhibition: incorporation of [3H]FPP into recombinant H-Ras-CVLS. In kind it is biochemical.
The subject of experiment [2] is farnesylation of H-Ras. Description: Whole cell inhibition of H-Ras processing (farnesylation), immunoblot, oncogenic H-Ras-transformed NIH3T3 cells. It counts as cell-based, mouse. Here is the method: (§1) In vitro inhibition assays for FTase and GGTase-I were conducted by measuring the incorporation of [^3H]FPP and [^3H]GGPP into recombinant H-Ras-CVLS and H-Ras-CVLL, respectively, as previously described (Vogt, et al., Protein geranylgeranylation, not farnesylation, is required for the G1 to S phase transition in mouse fibroblasts. Oncogene, 1996, 13, 1991-1999). The in vivo inhibition of farnesylation and geranylgeranylation was determined based on the level of inhibition by synthetic compounds of H-Ras and Rap1A processing, respectively (Sun, et al., Both farnesyltransferase and geranylgeranyltransferase I inhibitors are required for inhibition of oncogenic K-Ras prenylation but each alone is sufficient to suppress human tumor growth in nude mouse xenografts. Oncogene, 1998, 16, 1467-1473). […] The separated proteins were transferred to nitrocellulose and immunoblotted using an anti-Ras antibody (Y13-258) or an anti-Rap1A antibody (SantaCruz Biotechnology, Santa Cruz, Calif.), respectively. Antibody reactions were visualized using either peroxidase-conjugated goat anti-rat IgG or goat anti-rabbit IgG (Jackson ImmunoResearch, West Grove, Pa.) and an enhanced chemiluminescence detection system.
(§2) Briefly, in vitro inhibition assays for hFTase and GGTase-I were carried out by measuring the incorporation of [^3H]FPP and [^3H]GGPP into recombinant H-Ras-CVLS and H-Ras-CVLL, respectively, as described previously (Vogt et al., Protein geranylgeranylation, not farnesylation, is required for G1 to S phase transition in mouse fibroblasts. Oncogene. 1996; 13:1991-1999). Whole cell inhibition of farnesylation and geranylgeranylation were determined based on the level of inhibition by synthetic compounds of H-Ras and Rap1A processing, respectively (Sun, et al., Both farnesyltransferase and geranylgeranyltransferase I inhibitors are required for inhibition of oncogenic K-Ras prenylation but each alone is sufficient to suppress human tumor growth in nude mouse xenografts. Oncogene. 1998; 16:1467-1473).

Experiment [3] concerns geranylgeranylation of Rap1A. Description: Whole cell inhibition of Rap1A processing (geranylgeranylation), immunoblot, oncogenic H-Ras-transformed NIH3T3 cells. The note with it: Mus musculus; whole cells, oncogenic H-Ras-transformed NIH3T3; n = 3 unless stated; read-out: Rap1A processing IC50. In kind it is cell-based, mouse. Here is the method:
as §1, §2

For experiment [4], the system named is MDA-MB-231. Description: MTT proliferation/viability assay. Particulars: Homo sapiens, MDA-MB-231, MDA-MB-231, breast. In kind it is cell-based. As for the experimental part: (§3) To determine if FGTI-2734 is more efficacious than FT or GGT-1 inhibitors, 10 human cancer pancreatic cell lines, 2 human breast cancer cell lines, 2 human lung cancer cell lines and one human prostate cancer cell line were treated with these inhibitors and determined their effects on the proliferation of these cells by MTT assay.

Experiment [5] has as its system NCI-H460. Description: MTT proliferation/viability assay. In kind it is cell-based. The note with it: Homo sapiens, NCI-H460, lung. As for the experimental part:
as §3

The subject of experiment [6] is HDJ-2 farnesylation. Description: Western blot of HDJ-2 farnesylation/processing (gel shift) in treated cells. It counts as cell-based. Particulars: MiaPaca, MDA-MB-468 and MDA-MB-231 human cancer cells; FIG. 13. As for the experimental part: (§4) The ability of FGTI-2734 to inhibit HDJ-2 farnesylation and Rap-1A geranylgeranylation in human cancer cells was determined next. To this end, the MiaPaca pancreatic cancer cell line and 2 breast cancer cell lines (MDA-MB-468 and MDA-MB-231) were treated with various concentration of the dual inhibitor FGTI-2734, the GGT-1 inhibitor GGTI-2418 or the FT inhibitor FTI-2153 and processed for Western blotting.
(§5) Testing has shown that the dual farnesyltransferase and geranygeranyltransferase-I inhibitors are effective on pancreatic tumors (90% of all cases), colonic tumors (30% of all cases), lung tumors (30% of all cases), and breast tumors (10% of all cases). NIH-3T3 cells that overexpress oncogenic mutant K-Ras, seen in FIG. 14, and MDA-MB-231 breast cancer cells with a naturally occurring K-Ras mutation, seen in FIG. 15, were treated with indicated concentrations of FGTI-2734, GGTI-2417 or FTI-2153. FGTI-2734 but not FTI-2153 or GGTI-2417 inhibited K-Ras prenylation. As expected, GGTI-2417 inhibited the processing of Rap1 but not HDJ-2 whereas FTI-2153 inhibited the processing of HDJ-2 but not Rap1.
Mammalian target of rapamycin (mTOR) is a serine/threonine phosphatidylinositol 3-kinase-related kinase responsible for cell growth, proliferation, cell survival, protein synthesis, and transcription. […]

Experiment [7] concerns Rap-1A geranylgeranylation. Description: Western blot of Rap-1A geranylgeranylation/processing (antibody to un-geranylgeranylated Rap-1A) in treated cells. It counts as cell-based. The note with it: MiaPaca, MDA-MB-468 and MDA-MB-231 human cancer cells; FIG. 13. Here is the method: as §4, §5
Mammalian target of rapamycin (mTOR) is a serine/threonine phosphatidylinositol 3-kinase-related kinase responsible for cell growth, proliferation, cell survival, protein synthesis, and transcription. Alteration of the mTOR pathway, either through activation of oncogenes or inactivation of tumor suppressors, disrupts a signaling equilibrium and causes malignant transformation. Studies have shown that phosphorylated S6 (pS6) is related to mTOR pathway alterations, and is useful in determining PI3K-based cancer therapies (Aziz, et al. Phosphatidylinositol-3-Kinase as a Therapeutic Target in Melanoma. Clin Cancer Res. 2009, 15; 3029-3036). Two breast adenocarcinoma and a pancreatic carcinoma cell line were treated with indicated concentrations of FGTI-2734, GGTI-2417 or FTI-2153. Protein extracts were run on a Western Blot using antibody against pS6 (ser240/244) (Cell Signaling Technology, Inc., Danvers, Mass.). […]

Experiment [8] has as its system survivin. Description: Western blot of survivin and PARP (apoptosis). In kind it is cell-based. Particulars: human cancer cells. The source says: Mammalian target of rapamycin (mTOR) is a serine/threonine phosphatidylinositol 3-kinase-related kinase responsible for cell growth, proliferation, cell survival, protein synthesis, and transcription. Alteration of the mTOR pathway, either through activation of oncogenes or inactivation of tumor suppressors, disrupts a signaling equilibrium and causes malignant transformation. Studies have shown that phosphorylated S6 (pS6) is related to mTOR pathway alterations, and is useful in determining PI3K-based cancer therapies (Aziz, et al. Phosphatidylinositol-3-Kinase as a Therapeutic Target in Melanoma. Clin Cancer Res. 2009, 15; 3029-3036). Two breast adenocarcinoma and a pancreatic carcinoma cell line were treated with indicated concentrations of FGTI-2734, GGTI-2417 or FTI-2153. Protein extracts were run on a Western Blot using antibody against pS6 (ser240/244) (Cell Signaling Technology, Inc., Danvers, Mass.). […] Antibodies used were HDJ-2 (Lab Vision Corporation, Fremont, Calif.), Rapt (Santa Cruz Biotechnology, Santa Cruz, Calif.), K-Ras (EMD4 Biosciences (Calbiochem), Gibbstown, N.J.), P27 (BD Biosciences, San Jose, Calif.), Actin (Sigma-Aldrich, St. Louis, Mo.), Survivin (Santa Cruz Biotechnology, Santa Cruz, Calif.), and PARP (Roche, Indianapolis, Ind.).

Take `Cn1cncc1CN(CCN(CC1CCCCC1)S(=O)(=O)c1ccccn1)c1ccc(C#N)cc1F` [21b, N-(2-((4-cyano-2-fluorophenyl)((1-methyl-1H-imidazol-5-yl)methyl)amino)ethyl)-N-(cyclohexylmethyl)pyridine-2-sulfonamide]: the “selectivity (ratio of GGTase-I to FTase IC50s)” value in experiment [1] (GGTase-I IC50 / hFTase IC50) is 2.1. Also, the IC50 in experiment [1] (in vitro, average of three independent assays (n = 3) unless stated, errors are standard deviations) was found to be 250 ± 190 nM; in experiment [2] (Mus musculus, NIH3T3, whole cells, oncogenic H-Ras-transformed NIH3T3, n = 3 unless stated, read-out: H-Ras processing IC50), 88.7 ± 25.8 nM; in experiment [2] (whole cells, NIH 3T3, values in nM, listed as FGTI-2734, read-out: H-Ras processing IC50 (whole cell)), 89 ± 26 nM; in experiment [3], 2700 ± 1500 nM; in experiment [4] it was 12200 ± 970 nM; in experiment [5], 7190 ± 1180 nM. Also, the “inhibition of HDJ-2 farnesylation” value in experiment [6] is “inhibited”. Moreover, in experiment [7], the “inhibition of Rap-1A geranylgeranylation” value is “inhibited”. Moreover, in experiment [8] (FIG. 18), the survivin protein levels result was “reduces”. Besides, the apoptosis result in experiment [8] (FIG. 18 (PARP)) was “induces apoptosis”.
